# Where “and” joins values, the source holds several entries; their conditions need not be identical. Identical values can stand only once.
# System: FGF2
# Assay: Intramuscular FGF2 in gastrocnemius muscle lysates after 8 weeks of dietary supplementation, aged SD rat model of sarcopenia
# Assay type: in vivo, Sprague Dawley (SD) rat
# Conditions: for level of intramuscular FGF2, individual rat / level of intramuscular FGF2, AVE: aged (21 month) SD rats, gastrocnemius lysate, end of 8 week study, EGCg 50 mg/kg bw; for level of intramuscular FGF2, individual rat: Ca-HMB 340 mg/kg bw in AIN-93M diet, one value per rat (Rat 1-10); for % Change from Control (intramuscular FGF2): group average vs control diet AIN-93M, 8 weeks; for level of intramuscular FGF2, AVE: group average, Ca-HMB 340 mg/kg bw
# Method: Example 3 illustrates the effect of 8 weeks of dietary supplementation in the aged Sprague Dawley (SD) rat model of sarcopenia. More particularly, the level of intramuscular FGF2 in gastrocnemius muscle lysates of aged SD rats (21 month) were analyzed and compared. The four experimental groups included:
# 1) control group: fed AIN-93M (purified diet);
# 2) EGCg group: fed AIN-93M+EGCg (Teavigo®-DSM-50 mg/kg bw);
# 3) HMB group: fed AIN-93M+Ca-HMB (340 mg/kg bw); and
# 4) HMB+EGCg group: fed AIN-93M+Ca-HMB (340 mg/kg bw)+EGCg (Teavigo®-50 mg/kg bw).
# A total of 40 rats were divided equally among the four groups. Whole gastrocnemius muscles were collected from euthanized rats and flash frozen in liquid nitrogen. Approximately 200 mg tissue was obtained from each muscle by mechanical biopsy punch. Specimens were then pulverized on liquid nitrogen and transferred to 15 mL conical tube and weighed. A mild, detergent free lysis buffer (9×) was added to the dried specimen in the conical tube. 9× Lysis buffer (50 mM Tris.HCl, 2 mM EDTA, pH 7.4/NaOH) was supplemented with a mammalian protease inhibitor cocktail (Sigma) at a 1:200 dilution and stored on ice. The specimens were then vortexed again for 10 sec. and transferred to a 1.5 mL tube. Lysates were centrifuged/clarified for 5 min. at 11000 rpm at 4° C. in a standard table-top Eppendorf centrifuge. Supernatant (1 mL) was aliquotted to a 2 mL cryotube and stored at −80° C. Lystates were analyzed by Myriad Rules Based Medicine (Austin, Tex.) on the RodentMAP® v. 2.0 Antigens and Rat METABOLIC® multi-analyte profiling platforms.
compound,measurement,value
"CC(C)(O)CC(=O)O [HMB, beta-hydroxy-beta-methylbutyrate]","level of intramuscular FGF2, individual rat",15.0 ng/mL of lysate and 21.0 ng/mL of lysate and 6.1 ng/mL of lysate and 3.1 ng/mL of lysate and 4.3 ng/mL of lysate and 11.0 ng/mL of lysate and 4.0 ng/mL of lysate and 4.9 ng/mL of lysate
same,% Change from Control (intramuscular FGF2),18.8%
same,"level of intramuscular FGF2, AVE",8.68 ng/mL of lysate
epigallocatechin-3-gallate [EGCg],"level of intramuscular FGF2, individual rat",3.7 ng/mL of lysate (2×) and 16.0 ng/mL of lysate and 15.0 ng/mL of lysate and 9.9 ng/mL of lysate and 5.5 ng/mL of lysate and 3.1 ng/mL of lysate (3×) and 7.8 ng/mL of lysate
same,% Change from Control (intramuscular FGF2),−2.9%
same,"level of intramuscular FGF2, AVE",7.09 ng/mL of lysate
